Measurements taken from PubChem BioAssay (NCI).
Several values for one entry are separate records, joined by “and”; a condition that tells them apart may be missing. Identical values can stand only once.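 96-well plates; 48 h exposure; 5 concentrations. Endpoints by linear interpolation between flanking doses. Not reached: highest tested concentration assigned. GI50 marks 50% less growth. Definition used: TGI = concentration required for complete inhibition of growth.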

Columns and labels:
Assay in all cases: inhibition of tumour cell growth, NCI panel, 48 h
MDA-MB-231 breast = test system: MDA-MB-231 breast
T-47D breast = test system: T-47D breast
OVCAR-8 ovarian = test system: OVCAR-8 ovarian
MALME-3M melanoma = test system: MALME-3M melanoma
CCRF-CEM leukemia = test system: CCRF-CEM leukemia
786-0 renal = test system: 786-0 renal
SF-295 CNS = test system: SF-295 CNS
SK-MEL-5 melanoma = test system: SK-MEL-5 melanoma
HS 578T breast = test system: HS 578T breast
NCI-H23 lung = test system: NCI-H23 lung

SMILES	GI50 (MDA-MB-231 breast)	TGI (MDA-MB-231 breast) [µM]	GI50 (T-47D breast) [µM]	TGI (T-47D breast) [µM]	GI50 (OVCAR-8 ovarian)	TGI (OVCAR-8 ovarian) [µM]	GI50 (MALME-3M melanoma) [µM]	TGI (MALME-3M melanoma) [µM]	GI50 (CCRF-CEM leukemia)	TGI (CCRF-CEM leukemia) [µM]	GI50 (786-0 renal)	TGI (786-0 renal) [µM]	GI50 (SF-295 CNS)	TGI (SF-295 CNS) [µM]	GI50 (SK-MEL-5 melanoma)	TGI (SK-MEL-5 melanoma)	GI50 (HS 578T breast)	TGI (HS 578T breast) [µM]	GI50 (NCI-H23 lung)	TGI (NCI-H23 lung) [µM]
Cn1c(=O)c(Oc2ccc(F)cc2F)cc2cnc(N[C@@H]3CCOC3)nc21	> 25 µM	> 25	> 25	> 25	> 25 µM	> 25	> 25	> 25	> 25 µM	> 25	> 25 µM	> 25	> 25 µM	> 25	> 25 µM	> 25 µM	> 25 µM	> 25	> 25 µM	> 25
COc1ccc2c(c1)CCc1cc(OC)ccc1/[N+]([O-])=[N+]\2[O-]	–	37	–	49.1	–	33	–	38.5	–	5.74	–	18.6	–	37.6	–	31.6 µM	–	> 59.8	–	52.4
C#C[C@@]1(O)[C@@H](CO)O[C@@H](n2cc(C(F)(F)F)c3c(N)ncnc32)[C@@H]1O	0.736 µM	> 100	0.0639	3.77	0.243 µM	> 100	1.19	4.84	0.487 µM	> 37.2	2.07 µM	> 100	2.18 µM	8.09	0.688 µM	4.38 µM	1.26 µM	6.23	0.651 µM	8.19
N#Cc1nc(C#N)c(Sc2ccccc2)c(Sc2ccccc2)c1Sc1ccccc1	0.296 µM	0.773	0.584	2.48	0.287 µM	0.911	1.48	5.04	0.417 µM	> 100	0.392 µM	–	2.75 µM	> 29.1	1.31 µM	2.69 µM	0.463 µM	> 100	0.36 µM	2.35
CCC(=O)N1C/C(=C/c2ccc(Br)cc2)C(=O)/C(=C/c2ccc(Br)cc2)C1	0.76 µM	2.36	0.673	2.54	0.499 µM	2.88	1.69	3.63	0.88 µM	4.6	0.546 µM	1.2	1.6 µM	4.3	0.996 µM	2.45 µM	0.644 µM	4.12	1.31 µM	3.46
COc1ccc(C2C(C#N)=C(N)Oc3c2sc2c(Br)cccc32)cc1 (configuration not stated)	2.78 µM	12.7	3.13	15	4.99 µM	25.3	4.75	25.3	1.63 µM	7.02	3.25 µM	13	0.907 µM	6.54	2.4 µM	10.7 µM	3.3 µM	36.1	2.64 µM	14.2
Cc1ccc(-c2nc(-c3nccc4ccccc34)oc2-c2ccccc2)cc1	–	> 100	–	> 100	–	> 100	–	> 100	–	> 100	–	> 100	–	> 100	–	> 100 µM	–	> 100	–	> 100
Clc1ccc2c(c1)N(C1CCCN(Cc3ccccc3)C1)c1ccccc1S2 (configuration not stated)	3.35 µM	13.1	7.4	> 100	6.36 µM	> 100	3.88	39.9	4.89 µM	> 100	4.44 µM	> 100	2.44 µM	6.82	5.71 µM	25.3 µM	2.12 µM	6.07	9.33 µM	> 100
CC[C@H](C)[C@H](NC(=O)[C@H]1CCCCN1C)C(=O)N(C)[C@H](C[C@@H](OC(C)=O)c1cccc(C(=O)N[C@@H](Cc2ccccc2)C[C@H](C)C(=O)O)n1)C(C)C	0.00316 µM and 0.0025 µM	> 25	0.00136	–	0.00542 µM and 0.0025 µM	> 25	1.95	> 25	0.000818 µM and 0.0025 µM	> 25	0.00555 µM and 0.0025 µM	> 25	0.00275 µM and < 0.0025 µM	< 0.0025	0.000482 µM and 0.0025 µM	0.0193 µM and 0.00279 µM	0.002 µM and 0.0025 µM	> 25	0.00356 µM and 0.0025 µM	> 25
COc1ccc(C(=O)c2cc3c(N)c(C(=O)Nc4cccc(Br)c4C)sc3nc2C)cc1	0.13 µM	17.3	50.4	> 100	0.205 µM	> 100	0.0542	> 100	0.0409 µM	> 100	0.0616 µM	> 100	0.0405 µM	–	0.193 µM	1.81 µM	0.082 µM	> 100	0.354 µM	> 100
CNC(=O)c1c(F)cccc1Nc1nc(Nc2cc3c(cc2OC)CCN3C(=O)CN(C)C)nc2[nH]ccc12	1.9 µM	4.15	8.19	28.4	2.79 µM	8.5	1.5	3.13	2.1 µM	5.73	11.3 µM	33.2	19 µM	38.2	5.67 µM	23.1 µM	17.8 µM	46.8	13.3 µM	34
O=C(/C=C/c1ccccn1)c1ccc(OCc2nnc(-c3ccc(Cl)cc3)o2)cc1	2.27 µM	5.09	2.65	8.64	2.48 µM	5.57	2.28	4.46	1.83 µM	5.88	1.78 µM	3.23	1.68 µM	3.33	1.56 µM	3.14 µM	3.33 µM	10.3	2.13 µM	4.58
CCOc1ccc(C(C[N+](=O)[O-])Sc2ccccc2N)cc1 (configuration not stated)	2.43 µM	7.84	6.77	25.3	8.97 µM	22.6	12.3	24.7	3.67 µM	18.9	5.11 µM	17.1	4.39 µM	17.3	6.34 µM	19.4 µM	3.1 µM	18.3	8.71 µM	21.6
COc1cc2c(c(OC)c1OC)-c1ccc(SC)c(=O)cc1[C@@H](NC(=O)C(F)(F)F)CC2	–	> 100	–	> 100	–	> 72.6	–	> 88.1	–	> 100	–	38.6	–	< 0.01	–	0.138 µM	–	71.1	–	> 4.64
CCCCOc1ccc(/C=N/Nc2cc(C)nc3ccc(Br)cc23)cc1	1.88 µM	3.51	1.69	3.6	1.77 µM	3.53	1.91	3.4	1.88 µM	4.46	1.83 µM	3.37	1.82 µM	3.36	1.68 µM	3.05 µM	1.99 µM	4.71	1.86 µM	3.76
O=C1Cc2cc(CCn3cncn3)c(Cl)cc2N1	4.66 µM	> 100	> 100	> 100	69.4 µM	> 100	> 100	> 100	3.5 µM	> 100	> 100 µM	> 100	37.1 µM	> 100	10.1 µM	> 100 µM	0.72 µM	> 100	> 100 µM	> 100
